Experiment [1] addresses T1, Sentrin-specific protease 8 (Homo sapiens, UniProt Q96LD8).
T1 sequence (Q96LD8 whole entry): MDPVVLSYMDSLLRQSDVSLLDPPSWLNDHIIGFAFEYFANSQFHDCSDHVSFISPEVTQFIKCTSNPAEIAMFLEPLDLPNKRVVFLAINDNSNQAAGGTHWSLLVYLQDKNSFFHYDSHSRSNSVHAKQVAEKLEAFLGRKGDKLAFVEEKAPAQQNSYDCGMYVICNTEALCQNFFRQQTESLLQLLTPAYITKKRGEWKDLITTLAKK
Type of experiment: functional.

Experiment [2] addresses T1, Sentrin-specific protease 8. Type of experiment: functional. The source holds these as a separate data set.
Experiment [3] can be described thus: inhibitors of HIV Env-driven cell fusion, dose response, cherry-pick (AID 652057). Type of experiment: functional, cell-based.
Experiment [4] in a line: CEM21 lymphoblast cell cytotoxicity, dose response, cytotoxicity control for viral fusion inhibitor project, CellTiter-Glo luminescence, cherry-picked (AID 652042).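 Further: potency for signal decrease meaning cytotoxicity.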 Type of experiment: functional, cell-based.
Experiment [5] can be described thus: inhibitors of clade B AD8 Env fusion, dose response, cell-based, cherry-pick (AID 652062).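 Further: luciferase signal from cell-cell fusion driven by HIV-1 clade B AD8 Env; potency is for inhibitors of fusion seen as a drop in luminescence.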 Type of experiment: functional.
Experiment [6] can be described thus: ZM109 Env clade C HIV-1 fusion inhibitors, dose response, HeLa effector, CEM target cells, luciferase, cherry-pick (AID 652058). Type of experiment: functional, cell-based.
The nature of experiment [7]: off-target signal loss in HeLa-CEM21 co-culture – HeLa F-luc CTL cells, cherry-picked, counter-screen for HIV-1 Env fusion inhibitor project, dose response (AID 652040).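 Further: potency for signal decrease marking cytotoxic or nonspecific inhibition.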 Type of experiment: functional, cell-based. On the technique in general: A counterscreen serves to expose hits that act by an unwanted route or on another target.
The nature of experiment [8]: inhibitors of intracellular T. cruzi replication, confirmation, NIH3T3 host cells, beta-gal luminescence (AID 2044).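 Further: intracellular parasites grown in NIH/3T3 mouse fibroblasts as host cells; luminescent beta-galactosidase reporter signal from transgenic T. cruzi replicating inside host cells; inhibitors lower the luminescence signal.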 Type of experiment: functional, cell-based.
Experiment [9] is described as follows: cytotoxicity toward NIH3T3 fibroblasts, dose response, counter-screen, cell-based, ATP luminescence, mouse fibroblasts (AID 2010).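 Further: cells exposed to compound for about 90 hours before reading.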 Type of experiment: functional.
Experiment [10] deals with Heat shock protein HSP 90-alpha (Homo sapiens, UniProt P07900). Type of experiment: functional, organism-based.
The test system of the next experiment is INS1. Kind of experiment: beta cell apoptosis inhibitors, cytokine rescue, dose response, luminescence, retest (AID 449756).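 Further: cell death triggered by IL-1 beta plus TNF-alpha plus IFN-gamma mixture; protective hits raise ATP signal compared with cytokine alone wells.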 Type of experiment: functional, cell-based. Conditions: Rattus norvegicus.
Experiment [11] can be described thus: HEp-2 cell cytotoxicity, dose response, cytotoxicity control for RSV inhibitor project, HTS (AID 2410). Type of experiment: functional. As to conditions: human respiratory syncytial virus.
The target of experiment [12] is Luciferin 4-monooxygenase (Photinus pyralis, UniProt P08659). Nature of the experiment: firefly luciferase enzyme inhibitors, dose response, biochemical, luminescence (AID 1891).
Chain of Luciferin 4-monooxygenase (P08659 whole entry): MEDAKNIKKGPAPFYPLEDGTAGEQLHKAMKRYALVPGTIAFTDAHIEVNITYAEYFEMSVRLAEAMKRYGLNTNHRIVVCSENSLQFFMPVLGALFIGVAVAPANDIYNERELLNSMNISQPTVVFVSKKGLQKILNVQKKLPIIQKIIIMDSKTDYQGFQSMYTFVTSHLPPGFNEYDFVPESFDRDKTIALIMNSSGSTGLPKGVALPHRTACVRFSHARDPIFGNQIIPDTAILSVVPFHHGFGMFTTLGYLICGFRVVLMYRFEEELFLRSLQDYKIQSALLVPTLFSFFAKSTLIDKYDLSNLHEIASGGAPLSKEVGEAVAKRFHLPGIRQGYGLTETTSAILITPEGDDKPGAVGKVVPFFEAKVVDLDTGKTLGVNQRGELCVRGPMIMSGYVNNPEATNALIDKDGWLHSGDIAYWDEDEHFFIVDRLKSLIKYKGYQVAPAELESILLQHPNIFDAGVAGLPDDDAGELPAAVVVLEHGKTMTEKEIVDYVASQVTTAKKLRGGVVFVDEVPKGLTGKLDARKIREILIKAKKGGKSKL
Experiment [13] is described as follows: Luminescence Cell-Based Dose Confirmation HTS to Identify Inhibitors of Platelet Dense Granule Release. [Related pubchem assays: 1663 (Primary HTS), 1678 (Summary of Project)]. Type of experiment: functional.
A further experiment addresses T2, Galanin receptor type 3 (Homo sapiens, UniProt O60755).
T2 sequence (O60755 whole entry): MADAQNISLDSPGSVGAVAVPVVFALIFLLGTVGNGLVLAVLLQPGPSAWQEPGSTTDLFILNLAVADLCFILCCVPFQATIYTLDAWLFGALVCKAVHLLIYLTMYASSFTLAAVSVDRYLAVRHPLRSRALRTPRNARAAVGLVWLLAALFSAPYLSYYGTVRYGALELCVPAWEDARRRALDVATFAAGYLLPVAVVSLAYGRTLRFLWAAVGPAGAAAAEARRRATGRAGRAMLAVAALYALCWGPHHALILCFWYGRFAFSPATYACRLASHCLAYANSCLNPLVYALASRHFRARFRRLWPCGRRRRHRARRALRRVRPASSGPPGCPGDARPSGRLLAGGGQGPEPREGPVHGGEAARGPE
Kind of experiment: Fluorescence-based cell-based primary high throughput dose response assay to identify antagonists of the Galanin Receptor 3 (GalR3). Type of experiment: functional.

Another experiment can be described thus: cells. Type of experiment: functional, cell-based. As to conditions: HEK-CNG.
Experiment [14] concerns the target T3, Calpain-2 catalytic subunit (Sus scrofa, UniProt P43367).
T3 sequence (P43367 whole entry): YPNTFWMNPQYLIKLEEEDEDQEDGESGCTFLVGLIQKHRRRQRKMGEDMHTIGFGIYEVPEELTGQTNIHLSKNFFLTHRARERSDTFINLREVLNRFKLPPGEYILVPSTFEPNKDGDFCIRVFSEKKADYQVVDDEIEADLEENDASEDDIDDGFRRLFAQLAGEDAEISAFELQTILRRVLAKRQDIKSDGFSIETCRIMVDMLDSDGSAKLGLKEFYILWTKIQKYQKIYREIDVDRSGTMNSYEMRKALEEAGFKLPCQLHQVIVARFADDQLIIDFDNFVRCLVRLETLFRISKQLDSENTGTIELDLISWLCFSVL
Kind of experiment: pig calpain II inhibitor potency, dose response, biochemical, fluorogenic peptide substrate (AID 1420). Type of experiment: functional.

Experiment [15] relates to Streptococcus sp. 'group A'. Kind of experiment: growth inhibition of control SK(-) GAS strain, dose response, counter-screen for streptokinase expression inhibitor project, luminescence, kanamycin, BacTiterGlo, confirmation (AID 1900). Type of experiment: functional, organism-based.
Another experiment concerns Streptococcus. Kind of experiment: Group A Streptococcus viability loss, dose response, counter-screen for streptokinase expression inhibitor project, luminescence, BacTiterGlo (AID 1915).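 Further: potency for reduction of bacterial viability or growth.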 Type of experiment: functional, organism-based.

Calls of active or inactive are those of the source.

For orientation: IC50 means the concentration that gives 50% inhibition. For the compound `O=C(c1ncn(Cc2ccccc2)c1C(=O)N1CCc2ccccc2C1)N1CCc2ccccc2C1`, the IC50 in experiment [1] was > 100 µM (inactive); in experiment [2], 16 µM (active).
Broadly, the AC50 is the concentration at which the activity in the assay is half-maximal. In the case of `CN(C)c1ccc2c(c1)[C@@H]1C[C@H](CC(=O)NCc3ccc(-c4ccccc4)cc3)O[C@@H](CO)[C@@H]1O2`, the concentration at half-maximal activity (AC50) in experiment [3] was < 0.26 µM (active); in experiment [4], 40.9 µM (active); in [5] it was 2.51 µM (active).
For `CCCCCCCCN1C(=O)[C@H](CC(=O)N2CCCCC2)C[C@@]2(C(=O)OCC)CCCC=C12`, the AC50 is 8.73 µM (active) in experiment [3]; 37.2 µM (active) in experiment [4]; 13.9 µM (active) in experiment [6]; > 70 µM (inactive) in experiment [7]; 0.465 µM (active) in experiment [5].
What is called EC50 is the concentration needed to bring the measured effect to its halfway point. Take `Cc1ccc(NC(=S)N/N=C/c2ccc([N+](=O)[O-])s2)cc1`: the EC50 in [8] was 1.34 µM (active); in experiment [9], 7.86 µM (active). Also, the half-maximal activity concentration (AC50) in [10] was 3.4 µM (active); with INS1, 6.72 µM (active). Moreover, the IC50 is 18.4 µM (active) in [1] and 21.5 µM (active) in experiment [2].
For orientation: CC50 means the concentration that lowers cell viability or growth by half. For `Cc1n[nH]c2c1C1(C(=O)N(Cc3ccc(Cl)cc3)c3ccccc31)C(C#N)=C(N)O2` (configuration not stated), the cytotoxic concentration (CC50) in experiment [11] was 25.1 µM (active). The half-maximal activity concentration (AC50) in experiment [3] was 3.62 µM (active); in [4], 59.1 µM (active); in experiment [7] it was 55.2 µM (active); in experiment [5], 39.6 µM (active).
In the case of `CC1CC(=O)NN=C1c1ccc(NCCO)c([N+](=O)[O-])c1` (configuration not stated), the EC50 is > 112 µM (not active) in experiment [12], < 0.088 µM (active) in experiment [13] and > 29.9 µM (inactive) in the experiment “cells”. For the same compound, the IC50 at Galanin receptor type 3 was 0.367 µM (active).
As for `Cn1c(N)c(C(=O)COC(=O)c2cnc(Cl)c(Cl)c2)c(=O)n(C)c1=O`, the values for the half-maximal inhibitory concentration (IC50) (in [14]; on Galanin receptor type 3) were 10.1 µM (active) and > 29.9 µM (inactive), respectively. Moreover, the EC50 in “cells” is > 29.9 µM (inactive).
As for `CC(C)(C)C(=O)NC(=S)NNC(=O)c1ccc(Cl)cc1Cl`, the EC50 was 1.88 µM (active) in [15], 5.5 µM (active) in the experiment on Streptococcus and > 29.9 µM (inactive) in the experiment “cells”. At Galanin receptor type 3, the IC50 was > 29.9 µM (inactive).

Values taken from ChEMBL document CHEMBL1201862, “PubChem BioAssay data set” (2004).
